# Reference: patent US10327448B2, “Bacterium of Bacillus genus and uses thereof” (priority 2014, dated 2019)
# Positions of bridges follow the written chain, without caps; N, C: chain ends. Non-standard residues stand in square brackets, D forms with d. Residues, ends and D or L forms follow the SMILES beside them. *: point of attachment. Ileψ(thiazoline)Cys = CC[C@H](C)[C@H](N)C1=N[C@H](C(=O)*)CS1; dOrn = NCCC[C@@H](N)C(=O)O
# System: Bacillus subtilis ssp. shriramensis (MTCC-5674)
# Experiment: Antibiotic sensitivity test (antibiotic discs on T3 agar); for Result: key: RES - Resistant; INT - Intermediate; SEN - Sensitive
# Type: cell-based
# Settings: antibiotic disc on T3 agar, 30° C. for 24 hours; for Result: judged against Standards
# Description: Different antibiotic discs were placed on the surface of the T3 agar plates labelled with the respective antibiotic. The plates were incubated at 30° C. for 24 hours.
Molecule,Zone [mm],"antibiotic sensitivity of the bacterium, in words",Result
[H]/N=C(/N)N[C@H]1[C@H](O)[C@@H](O)[C@H](O[C@@H]2O[C@@H](C)[C@](O)(C=O)[C@H]2O[C@@H]2O[C@@H](CO)[C@H](O)[C@@H](O)[C@@H]2NC)[C@@H](N/C(N)=N\[H])[C@@H]1O [Streptomycin],12,intermediate resistance,INT
CCC[C@@H]1C[C@@H](C(=O)N[C@@H]([C@H]2O[C@H](SC)[C@H](O)[C@@H](O)[C@H]2O)[C@H](C)Cl)N(C)C1 [Clindamycin],10,,
CCC[C@@H]1C[C@@H](C(=O)N[C@@H]([C@H]2O[C@H](SC)[C@H](O)[C@@H](O)[C@H]2O)[C@@H](C)O)N(C)C1 [Lincomycin],12,resistant,RES
NC[C@H]1O[C@H](O[C@H]2[C@H](O)[C@@H](O[C@H]3O[C@H](CO)[C@@H](O)[C@H](N)[C@H]3O)[C@H](N)C[C@@H]2N)[C@H](O)[C@@H](O)[C@@H]1O [Kanamycin],13,,RES
CC[C@H]1OC(=O)[C@H](C)[C@@H](O[C@H]2C[C@@](C)(OC)[C@@H](O)[C@H](C)O2)[C@H](C)[C@@H](O[C@@H]2O[C@H](C)C[C@H](N(C)C)[C@H]2O)[C@](C)(O)C[C@@H](C)C(=O)[C@H](C)[C@@H](O)[C@]1(C)O [Erythromycin],16,intermediate resistance,INT
CCN1CCN(c2cc3c(cc2F)c(=O)c(C(=O)O)cn3C2CC2)CC1 [Enrofloxacin],41,resistant,RES
Cc1noc(NS(=O)(=O)c2ccc(N)cc2)c1C [Sulfisoxazole],33,sensitive,SEN
CC1(C)S[C@@H]2[C@H](NC(=O)[C@H](N)c3ccc(O)cc3)C(=O)N2[C@H]1C(=O)O [Amoxicillin],0,resistant,RES
Cc1onc(-c2ccccc2)c1C(=O)N[C@@H]1C(=O)N2[C@@H]1SC(C)(C)[C@@H]2C(=O)O [Oxacillin],11,intermediate resistance,INT
O=C(N[C@H](CO)[C@H](O)c1ccc([N+](=O)[O-])cc1)C(Cl)Cl [Chloramphenicol],25,sensitive,SEN
CC1(C)S[C@@H]2[C@H](NC(=O)[C@H](N)c3ccccc3)C(=O)N2[C@H]1C(=O)O [Ampicillin],0,resistant,RES
CN[C@H](CC(C)C)C(=O)N[C@H]1C(=O)N[C@@H](CC(N)=O)C(=O)N[C@H]2C(=O)N[C@H]3C(=O)N[C@H](C(=O)N[C@H](C(=O)O)c4cc(O)cc(O)c4-c4cc3ccc4O)[C@H](O)c3ccc(c(Cl)c3)Oc3cc2cc(c3O[C@@H]2O[C@H](CO)[C@@H](O)[C@H](O)[C@H]2O[C@H]2C[C@](C)(N)[C@H](O)[C@H](C)O2)Oc2ccc(cc2Cl)[C@H]1O [Vancomycin],20,sensitive,SEN
CO[C@@H]1[C@@H](OC(N)=O)[C@@H](O)[C@H](Oc2ccc3c(O)c(NC(=O)c4ccc(O)c(CC=C(C)C)c4)c(=O)oc3c2C)OC1(C)C [Novobiocin],24,sensitive,SEN
NCC[C@H](O)C(=O)N[C@@H]1C[C@H](N)[C@@H](O[C@H]2O[C@H](CN)[C@@H](O)[C@H](O)[C@H]2O)[C@H](O)[C@H]1O[C@H]1O[C@H](CO)[C@@H](O)[C@H](N)[C@H]1O [Amikacin],15,intermediate resistance,INT
CC[C@H](C)[C@H](N)C1=N[C@H](C(=O)N[C@@H](CC(C)C)C(=O)N[C@H](CCC(=O)O)C(=O)N[C@H](C(=O)N[C@H]2CCCCNC(=O)[C@H](CC(N)=O)NC(=O)[C@@H](CC(=O)O)NC(=O)[C@H](Cc3cnc[nH]3)NC(=O)[C@@H](Cc3ccccc3)NC(=O)[C@H]([C@@H](C)CC)NC(=O)[C@@H](CCCN)NC2=O)[C@@H](C)CC)CS1 [Bacitracin] ({Ileψ(thiazoline)Cys}-L[dE]IK[dOrn]I[dF]H[dD]N; lactam 4-C),21,sensitive,SEN
CC(=O)OCC1=C(C(=O)O)N2C(=O)[C@@H](NC(=O)Cc3cccs3)[C@H]2SC1 [Cephalothin],40,sensitive,SEN
Neomycin,12,resistant,RES
CO/N=C(\C(=O)N[C@@H]1C(=O)N2C(C(=O)O)=C(CSc3nc(=O)c(=O)[nH]n3C)CS[C@H]12)c1csc(N)n1 [Ceftriaxone],28,sensitive,SEN
NC[C@H]1O[C@H](O[C@H]2[C@H](O)[C@@H](O[C@H]3O[C@H](CO)[C@@H](O)[C@H](N)[C@H]3O)[C@H](N)C[C@@H]2N)[C@H](N)C[C@@H]1O [Tobramycin],15,sensitive,SEN
CC[C@H]1OC(=O)[C@H](C)[C@@H](O[C@H]2C[C@@](C)(OC)[C@@H](O)[C@H](C)O2)[C@H](C)[C@@H](O[C@@H]2O[C@H](C)C[C@H](N(C)C)[C@H]2O)[C@](C)(O)C[C@@H](C)CN(C)[C@H](C)[C@@H](O)[C@]1(C)O [Azithromycin],10,resistant,RES
Gentamicin,20,sensitive,SEN
CC1(C)S[C@@H]2[C@H](NC(=O)C(C(=O)O)c3ccccc3)C(=O)N2[C@H]1C(=O)O (stereo partly drawn) [Carbenicillin],15,resistant,RES
